In ChEMBL document CHEMBL1157539, “Thousands of chemical starting points for antimalarial lead identification” (Nature, 2010):

What follows are molecules tested on Plasmodium falciparum (assay: GSK_TCMDC: Inhibition of Plasmodium falciparum 3D7 in whole erythrocytes, using parasite LDH activity as an index of growth.). Settings: Plasmodium falciparum, 3D7.
Format: functional, organism-based
Work on `COc1ccc(CN2CCC(CNC(C)c3cccc4ccccc34)CC2)cc1` (stereo not drawn) yielded an XC50 of 0.175 µM. `CN1CCN(CC(=O)Nc2ccc(-c3csc(-c4nc5ccccc5[nH]4)c3)cc2)CC1` showed an XC50 of 1.56 µM. For `COc1ccc(-c2ccc(NC(=O)c3cccc(C#N)c3)cc2)cc1CN1CCN(C)CC1`, the XC50 was 0.713 µM. `CCc1cc2c(Sc3nnc(N)s3)ncnc2s1` showed an XC50 of 0.659 µM. For `CN(C)CCN(C)C(=O)c1cc(-c2ccncc2)c(-c2ccc(Cl)c(O)c2)o1`, the XC50 was 1.05 µM. `CCN(CC)CCOc1c(Cl)cc(Cl)cc1CNCCCNc1cc(=O)c2ccccc2[nH]1` gave an XC50 of 0.871 µM. With `O=C(NC1CC1)c1ccc(Cn2c(SCc3cccc([N+](=O)[O-])c3)nc3ccccc3c2=O)cc1` the XC50 was 0.764 µM. In the case of `O=C(Cc1ccccc1)NC1CCN(c2ccnc3cc(Cl)ccc23)C1` (stereo not drawn), the XC50 is reported as 0.805 µM. `CCN(CC)CCN(Cc1ccc(-c2ccc(C(F)(F)F)cc2)cc1)C(=O)Cn1c(CCC2CCCCC2)nc(=O)c2ccccc21` showed an XC50 of 1.39 µM. In the case of `Clc1ccc2c(Cl)c(CNCCCNc3nc4ccccc4[nH]3)[nH]c2c1`, the XC50 is reported as 0.219 µM. With `COc1cc2nc(N3CCC(CNC(=O)c4ccc(-c5ccc(C(=O)N(C)C)cc5O)cc4)CC3)nc(N)c2cc1OC` the XC50 was 0.278 µM. Work on `Cn1c(NC(=O)C2CCC(CNC(=O)c3ccc(O)c(-c4cccc([N+](=O)[O-])c4)c3)CC2)nc2ccccc21` (stereo not drawn) yielded an XC50 of 0.982 µM. `COc1ccc(Nc2nc(N/N=C/c3ccc(-c4ccc([N+](=O)[O-])cc4)o3)nc(Nc3ccccc3)n2)cc1` was tested, and the XC50 was 0.761 µM. `Cn1nccc1C(=O)NCCNCc1ccc(-c2cccc(-c3nc4ccccc4[nH]3)c2)cc1` gave an XC50 of 0.137 µM. `Cc1ccccc1C(=O)Nc1cccc(-c2nc3ncccn3c2C)c1` showed an XC50 of 0.765 µM. In the case of `COc1cccc(-c2cc(C(F)(F)F)n3ncc(C(=O)Nc4cc(C)ccc4O)c3n2)c1`, the XC50 is reported as 0.159 µM. Molecule `Cn1c(Nc2cc(C(C)(C)C)on2)nc2cc(Nc3ccnc(Nc4cccc(CS(C)(=O)=O)c4)n3)ccc21` has an XC50 of 0.571 µM. For `CNc1ccc(CNCc2ccc(-c3ccc(-c4nc5cc(C(F)(F)F)ccc5[nH]4)cc3)cc2)cc1`, the XC50 was 0.167 µM. Work on `CCC(C)CN1CCC(N(C)c2cc(NC(=O)c3cccc(C)c3)ccn2)CC1` (stereo not drawn) yielded an XC50 of 0.937 µM. Work on `COc1cc(Nc2nccc(N3CCC(NC(=O)C(C)c4ccc(Cl)cc4)C3)n2)cc(OC)c1OC` (stereo not drawn) yielded an XC50 of 0.757 µM. In the case of `CCOC(=O)c1ccc(NC(=O)Nc2cccc(-c3ccc(-c4nc5ccccc5[nH]4)cc3)c2)cc1`, the XC50 is reported as 0.212 µM. Work on `CC(=O)Nc1ccc(CN(Cc2ccc(F)cc2)Cc2ccc3c(c2)OCO3)cc1` yielded an XC50 of 0.943 µM. `Cc1ccc(NS(=O)(=O)c2ccc(-c3ccccc3)cc2)c(Cn2cnc(N3CCCNCC3)cc2=O)c1` gave an XC50 of 0.859 µM. `O=C(Nc1ccc(F)cc1)c1ccc(C(=O)NC2CCN(CC3CCCCC3)CC2)cc1` gave an XC50 of 0.544 µM. For `CCN1CCC(N(Cc2ccc(-c3ccc(C(F)(F)F)cc3)cc2)C(=O)Cn2c(CCc3cccc(F)c3F)nc(=O)c3ccccc32)CC1`, the XC50 was 1.06 µM. For `COc1ccc(N2CCc3c(-c4cccc5cnccc45)cc(C)nc32)c(C)c1`, the XC50 was 0.655 µM. Molecule `O=S1(=O)NCc2ccc(Nc3nccc(Nc4ccc5c(cnn5Cc5ccccc5)c4)n3)cc21` has an XC50 of 0.75 µM. Work on `Cc1cc(C)c(C(=O)Nc2n[nH]c3nnc(-c4cccc(F)c4F)cc23)c(C)c1` yielded an XC50 of 1.07 µM. Molecule `COc1cccc(C(=O)NCc2cccs2)c1Oc1ccccc1` has an XC50 of 0.0635 µM. For `CCN(CC)CCCC(C)Nc1c(-c2ccc(OC)cc2)cnc2ccccc12` (stereo not drawn), the XC50 was 0.894 µM. `Cc1cccc2nc(-c3ccc(-c4cccc(CN5CCC(C(N)=O)CC5)c4)cc3)[nH]c12` showed an XC50 of 1.77 µM. For `Fc1ccc2[nH]c(-c3cccc(-c4ccc(CNCC5CCCO5)cc4)c3)nc2c1` (stereo not drawn), the XC50 was 0.541 µM. `Cc1noc(NC(=O)c2sc3ccccc3c2O)c1C` was tested, and the XC50 was 0.852 µM. Molecule `C/C=C/C=C/C1=NCCc2cc(OCCC)ccc21` has an XC50 of 0.914 µM. With `COc1cc2c(cc1N(C(C)C)S(=O)(=O)c1sc3ccc(Cl)cc3c1C)CCNCC2` the XC50 was 1.05 µM. `CN(N=Cc1ccccc1)C(=N)NCCCC#Cc1cccc(CN2CCCC2)c1` showed an XC50 of 1.79 µM. `COc1ccc2nc(C)cc(Nc3ccc(N4CCN(C)CC4)cc3)c2c1` was tested, and the XC50 was 0.788 µM. For `CCOc1ccc(-c2nonc2NC(=O)c2ccc(Cl)cc2)cc1OCC`, the XC50 was 0.988 µM. Work on `COc1ccc(C2SCC(=O)N2CCc2ccc(OC)c(OC)c2)cc1` (stereo not drawn) yielded an XC50 of 0.306 µM. For `CCc1cc2c3c(N)nc(N)nc3ccc2n1C(C)CC` (stereo not drawn), the XC50 was 0.0032 µM. `O=[N+]([O-])c1ccc2nc(Nc3cccc(C(F)(F)F)c3)c(Nc3cccc(C(F)(F)F)c3)nc2c1` was tested, and the XC50 was 0.483 µM. Molecule `COc1ccc(NC(=O)CSc2nc(-c3ccccc3Cl)ns2)cc1` has an XC50 of 1.04 µM. `CN(C)CCN(C)Cc1cccc(-c2cccc(NC(=O)c3cccc(C#N)c3)c2)c1` gave an XC50 of 0.873 µM. In the case of `N#Cc1cc(C(=O)Nc2ccccc2)c(N)nc1SCC(=O)Nc1ccc(Br)cc1`, the XC50 is reported as 1.1 µM. In the case of `COc1cc(NC(=O)/C=C/c2cc(F)cc(F)c2F)cc(OCCN2CCCCC2)c1`, the XC50 is reported as 0.153 µM. `N=c1n(Cc2ccccc2)c2ccccc2n1CC(O)c1ccc(Cl)c(Cl)c1` (stereo not drawn) was tested, and the XC50 was 0.828 µM. With `COc1ccccc1CN1CCC(NC(=O)c2ccc(-c3cccc(Cl)c3)s2)CC1` the XC50 was 1.42 µM. With `CC1(C)CC2CC(C)(CN2C(=O)c2cc(C(C)(C)C)nn2Cc2ccccc2)C1` (stereo not drawn) the XC50 was 1.09 µM. For `OC(CNC1CCCCC1)c1ccc(Cl)c(Cl)c1` (stereo not drawn), the XC50 was 0.698 µM. Molecule `Cc1nnsc1C(=O)Nc1cccc(-c2ccc(-c3nc4ccccc4[nH]3)cc2)c1` has an XC50 of 0.87 µM. In the case of `CC(=O)Nc1sc(C)c(C)c1CN1CCc2ccccc2C1`, the XC50 is reported as 0.616 µM. Work on `O=C(Nc1ccccc1Cl)N(Cc1cc(Cl)cc(Cl)c1)CC(O)COc1ccc(Cl)c(F)c1` (stereo not drawn) yielded an XC50 of 0.788 µM. `CCc1cc(COc2ccc(CNCCC(C)C)cc2I)c(OCc2ccccc2)c(COc2ccc(CNCCC(C)C)cc2I)c1` was tested, and the XC50 was 1.11 µM. In the case of `Cc1cc(CNC(=O)c2ccc(-c3ccc(-c4nc5cc(C(F)(F)F)ccc5[nH]4)s3)cc2)on1`, the XC50 is reported as 0.732 µM. Work on `COc1ccc(CNc2nc(Nc3cccc(C#N)c3)nc(Nc3cccc(C#N)c3)n2)cc1Cl` yielded an XC50 of 0.179 µM. `COc1cc(Nc2ncc3c(C)nc(-c4cccc(Nc5ccc(CN6CCS(=O)(=O)CC6)cc5)c4)n3n2)cc(OC)c1OC` was tested, and the XC50 was 0.865 µM. Work on `COC[C@H]1CCCN1Cc1ccc(-c2ccc(-c3nc4ccccc4[nH]3)s2)cc1` yielded an XC50 of 1 µM. Molecule `Oc1cc2c(cc1CN1CCN(Cc3cccs3)CC1)CCC2` has an XC50 of 0.839 µM. In the case of `COc1cc2nc(Nc3ccc(C)cc3)nc(Nc3ccc(C)cc3)c2cc1OC`, the XC50 is reported as 0.139 µM. `c1ccc(CNc2cc(-c3ccccn3)nc(-c3ccccn3)n2)cc1` gave an XC50 of 0.302 µM. With `Cc1nc2sccn2c1C(=O)NCCc1ccccc1Cl` the XC50 was 0.8 µM. For `Cc1ccc(-c2nc(N3CCN(C(=O)c4ccco4)CC3)c3ccccc3n2)cc1`, the XC50 was 0.97 µM. In the case of `CCNc1cc(C(=O)N[C@@H](Cc2ccccc2)[C@H](O)CNCCc2ccccc2)cc(N2CCCCS2(=O)=O)c1`, the XC50 is reported as 0.936 µM. `FC(F)(F)c1cccc(Nc2nc3ccccc3nc2Nc2cccc(C(F)(F)F)c2)c1` showed an XC50 of 0.137 µM. `O=C1C(=Cc2cc(Cc3ccccc3)ccc2O)SC(=S)N1Cc1ccccc1` was tested, and the XC50 was 0.943 µM. Work on `CCc1cn2c3c(cc(C(=O)N[C@@H](Cc4ccccc4)[C@H](O)CNCc4cccc(C)c4)cc13)N(C)S(=O)(=O)CC2` yielded an XC50 of 0.246 µM. `Cc1cccc2nc(-c3cccc(-c4cccc(NC(=O)Nc5ccc(F)c(F)c5F)c4)c3)[nH]c12` was tested, and the XC50 was 0.108 µM. Molecule `COc1cc(C(=O)N2CCOC(CCN3CCc4c(c5ccccc5n4C)C3)(c3ccc(Cl)c(Cl)c3)C2)cc(OC)c1OC` (stereo not drawn) has an XC50 of 0.357 µM. Molecule `CNC(=O)c1cc(S(=O)(=O)N2CCN(c3ccccn3)CC2)c(C)s1` has an XC50 of 1.16 µM. `Cc1cccc2nc(-c3ccc(-c4cccc(NC(=O)CCc5c[nH]cn5)c4)cc3)[nH]c12` showed an XC50 of 0.41 µM. Work on `O=C(CCc1c[nH]cn1)Nc1cccc(-c2cccc(-c3nc4ccccc4[nH]3)c2)c1` yielded an XC50 of 0.66 µM. `CC(C)C[C@@H](CNC[C@H](CC(C)C)NC(=O)OC(C)(C)C)NC(=O)OC(C)(C)C` showed an XC50 of 1.25 µM. In the case of `COc1cc2nc(NCCCO)nc(Nc3ccc(Oc4ccccc4)cc3)c2cc1OC`, the XC50 is reported as 0.145 µM. For `COC(=O)c1ccc2nc(-c3ccc(C(=O)NCc4ccc(Cl)c(Cl)c4)cc3)[nH]c2c1`, the XC50 was 0.852 µM. For `FC(F)(F)COc1ccc(CNCCCCCCNCc2ccc(OCC(F)(F)F)c3ccccc23)c2ccccc12`, the XC50 was 0.4 µM. Molecule `Cc1nc(N)nc(N)c1-c1ccc(Br)c(Br)c1` has an XC50 of 0.0536 µM. Work on `COc1ccc2[nH]ccc(=NN=Cc3cccc(Cl)c3)c2c1` yielded an XC50 of 0.193 µM. Molecule `FC(F)(F)c1ccc2[nH]c(-c3ccc(-c4cccc(CN5CCC(CCN6CCCCC6)CC5)c4)cc3)nc2c1` has an XC50 of 0.153 µM. With `CN(C)CCOc1ccc(/C(=C(/CCCn2ccnc2)c2ccccc2)c2ccc(O)cc2)cc1` the XC50 was 0.772 µM. `COc1ccc(CC(C)NCC(O)c2cccc(Br)c2)cc1` (stereo not drawn) gave an XC50 of 0.961 µM. `CN1CCN(C(C(=O)NCc2cc(Cl)cc(Cl)c2)c2ccccc2-c2ccsc2)CC1` (stereo not drawn) showed an XC50 of 0.936 µM. Work on `N#Cc1cccc(NC(=O)Nc2ccc(CC(=O)N3CCc4cc(Cl)c(N5CCN(C/C=C/c6ccccc6)CC5)cc43)cc2)c1` yielded an XC50 of 0.875 µM. Work on `Nc1nc(N)c2c(ccc3nn(Cc4ccccc4)cc32)n1` yielded an XC50 of 0.215 µM. `Cc1n[nH]c2cc(F)c(-c3cc(OC[C@@H](N)Cc4ccccc4)cnc3-c3ccoc3)cc12` was tested, and the XC50 was 1.04 µM. For `Cc1noc(C)c1-c1ccc2c(Nc3ccccc3C(C)(C)C)c(C(=O)NCc3ccc(OC(C)C)cc3)cnc2c1`, the XC50 was 0.908 µM. For `CC(CN1CCN(C)CC1)C(=O)Nc1cccc(-c2cccc(-c3nc4ccccc4[nH]3)c2)c1` (stereo not drawn), the XC50 was 1.01 µM. For `O=C(c1cc(-c2ccccc2)n[nH]1)N1CCN(S(=O)(=O)c2ccc(Cl)s2)CC1`, the XC50 was 0.925 µM. For `COc1ccc2nccc([C@@H](O)CN3CCC(NC(=O)C(c4cc5ccccc5o4)N4CCN(c5ccccc5OC)CC4)CC3)c2c1` (stereo partly drawn), the XC50 was 0.308 µM. `Cc1ccc(N2CCN(CCCCNC(=O)c3ccc(NC(=O)c4ccc(Cl)cc4)cc3)CC2)c(C)c1` showed an XC50 of 0.764 µM. `Oc1c(Cl)cc(-c2ccccc2)cc1CNC1CCCCC1` showed an XC50 of 0.749 µM. `Cc1cccc2nc(-c3ccc(-c4cccc(CNCCN(C)C)c4)cc3)[nH]c12` gave an XC50 of 0.682 µM. Work on `COc1ccc(C(C(=O)NC2CCN(C[C@H](O)c3ccnc4ccc(OC)cc34)CC2)N2CCN(Cc3ccccc3)CC2)cc1` (stereo partly drawn) yielded an XC50 of 0.149 µM. With `O=c1sn(-c2csc3ccccc23)c2ccccc12` the XC50 was 0.339 µM. For `COc1cc(F)c2ncc(Cl)c(C(O)CN3CCC(NC(=O)c4ccc5c(c4)NC(=O)CS5)CC3)c2c1` (stereo not drawn), the XC50 was 0.68 µM. `Nc1ncc(-c2ccsc2)c2ccc(-c3cnc[nH]3)cc12` was tested, and the XC50 was 0.573 µM. With `COc1ccc2nccc([C@@H](O)CN3CCC(NCCOc4ccncc4)CC3)c2c1` the XC50 was 0.691 µM. With `Cc1cc2cc(NC(=O)Nc3ccnc4ccccc34)ccc2n1C` the XC50 was 1.09 µM. Work on `NCC1CCCN1Cc1ccc(-c2ccc(-c3nc4cc(C(F)(F)F)ccc4[nH]3)cc2)cc1` (stereo not drawn) yielded an XC50 of 0.959 µM.
